Results as given in ChEMBL document CHEMBL4665919, “Novel Tricyclic Pyroglutamide Derivatives as Potent RORγt Inverse Agonists Identified using a Virtual Screening Approach” (ACS Med Chem Lett, 2020).

Tests used:
[1] = Half life in mouse liver microsomes; type: ADME, Microsome
[2] = Tmax in BALB/c mouse at 4 mg/kg, po; type: ADME, organism-based; conditions: in vivo
[3] = biological target: T1, Oxysterols receptor LXR-alpha (Homo sapiens, UniProt Q13133); assay: Inverse agonist activity at LXRalpha (unknown origin)
T1 sequence (Q13133 whole entry): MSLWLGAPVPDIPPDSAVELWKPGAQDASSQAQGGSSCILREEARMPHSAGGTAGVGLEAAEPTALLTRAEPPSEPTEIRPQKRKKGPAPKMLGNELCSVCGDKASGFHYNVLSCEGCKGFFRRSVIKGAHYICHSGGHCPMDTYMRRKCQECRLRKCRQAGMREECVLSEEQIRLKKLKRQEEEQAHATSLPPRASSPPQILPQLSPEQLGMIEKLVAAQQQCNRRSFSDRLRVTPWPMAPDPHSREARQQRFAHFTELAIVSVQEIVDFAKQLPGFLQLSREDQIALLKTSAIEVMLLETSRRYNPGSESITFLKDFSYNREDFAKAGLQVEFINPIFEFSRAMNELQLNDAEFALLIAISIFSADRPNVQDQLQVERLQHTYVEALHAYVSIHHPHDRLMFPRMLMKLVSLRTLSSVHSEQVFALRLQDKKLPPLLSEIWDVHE

[4] = Permeability across apical to basolateral side in human Caco2 cells; type: ADME, cell-based; conditions: Caco-2, read-out: permeability
Cytochrome P450 1A2 = biological target: T2, Cytochrome P450 1A2 (Homo sapiens, UniProt P05177); assay: Inhibition of CYP1A2 (unknown origin); type: ADME
T2 sequence (P05177 whole entry): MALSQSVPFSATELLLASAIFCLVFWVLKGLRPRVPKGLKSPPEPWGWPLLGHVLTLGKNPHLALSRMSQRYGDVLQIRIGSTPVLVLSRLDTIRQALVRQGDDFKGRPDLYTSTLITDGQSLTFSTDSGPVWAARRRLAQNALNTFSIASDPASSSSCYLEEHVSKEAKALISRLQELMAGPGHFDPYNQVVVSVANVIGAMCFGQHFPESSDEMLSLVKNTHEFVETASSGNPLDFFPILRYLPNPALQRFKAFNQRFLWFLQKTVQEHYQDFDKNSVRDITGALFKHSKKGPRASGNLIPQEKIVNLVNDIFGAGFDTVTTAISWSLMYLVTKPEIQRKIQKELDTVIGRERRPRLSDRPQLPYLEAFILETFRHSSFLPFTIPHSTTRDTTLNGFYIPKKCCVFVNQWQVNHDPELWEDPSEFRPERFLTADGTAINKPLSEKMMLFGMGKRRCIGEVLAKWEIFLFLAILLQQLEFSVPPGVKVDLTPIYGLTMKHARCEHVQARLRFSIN

[5] = AUC in BALB/c mouse at 2 mg/kg, iv measured upto 72 hrs; type: ADME, organism-based; parameters: route intravenous, dose 2 mg/kg, time <=72; conditions: in vivo
[6] = Kinetic solubility of compound in acetate buffer at pH 4; type: physicochemical; conditions: read-out: Kinetic_solubility
[7] = AUC in BALB/c mouse at 4 mg/kg, po; type: ADME, organism-based; parameters: dose 4 mg/kg; conditions: in vivo
[8] = biological target: T3, Nuclear receptor ROR-beta (Homo sapiens, UniProt Q92753); assay: Inverse agonist activity at Gal4-fused RORbeta (unknown origin)
T3 sequence (Q92753 whole entry): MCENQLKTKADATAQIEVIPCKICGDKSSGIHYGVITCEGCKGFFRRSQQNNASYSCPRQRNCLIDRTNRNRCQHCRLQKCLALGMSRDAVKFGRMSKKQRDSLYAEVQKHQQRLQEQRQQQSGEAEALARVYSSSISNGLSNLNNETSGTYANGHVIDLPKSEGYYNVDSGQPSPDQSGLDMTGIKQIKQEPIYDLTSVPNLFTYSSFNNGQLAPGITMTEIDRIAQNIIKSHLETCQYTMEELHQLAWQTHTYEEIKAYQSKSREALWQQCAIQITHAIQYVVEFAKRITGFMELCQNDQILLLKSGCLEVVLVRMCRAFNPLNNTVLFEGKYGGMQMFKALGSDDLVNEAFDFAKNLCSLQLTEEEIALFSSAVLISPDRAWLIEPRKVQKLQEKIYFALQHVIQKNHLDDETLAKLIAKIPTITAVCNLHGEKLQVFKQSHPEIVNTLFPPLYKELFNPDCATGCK

[9] = Protein binding in human; type: ADME
[10] = Kinetic solubility of compound in 0.1 N HCK solvent at pH 1; type: physicochemical; conditions: 0.1 N HCl (printed 0.1 N HCK), read-out: Kinetic_solubility
Cytochrome P450 2C19 = Cytochrome P450 2C19 (Homo sapiens, UniProt P33261); assay: Inhibition of CYP2C19 (unknown origin); type: ADME
Chain of Cytochrome P450 2C19 (P33261 whole entry): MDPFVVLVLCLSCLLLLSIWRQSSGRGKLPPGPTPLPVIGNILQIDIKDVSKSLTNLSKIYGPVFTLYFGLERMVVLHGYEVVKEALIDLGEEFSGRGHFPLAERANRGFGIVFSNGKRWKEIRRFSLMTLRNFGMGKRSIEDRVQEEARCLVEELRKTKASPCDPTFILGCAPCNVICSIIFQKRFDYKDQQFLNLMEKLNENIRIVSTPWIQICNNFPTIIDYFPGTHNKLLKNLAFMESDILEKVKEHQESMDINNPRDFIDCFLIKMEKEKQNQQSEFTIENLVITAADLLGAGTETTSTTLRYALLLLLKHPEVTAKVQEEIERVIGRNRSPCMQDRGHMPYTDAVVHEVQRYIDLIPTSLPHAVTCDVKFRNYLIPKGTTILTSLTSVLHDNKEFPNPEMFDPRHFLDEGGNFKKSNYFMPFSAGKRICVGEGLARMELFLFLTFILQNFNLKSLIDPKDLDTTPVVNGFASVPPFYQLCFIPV

- half-life [1]: > 2 h
- Tmax [2]: 4.3 h
- EC50 [3]: > 7.5 µM
- Papp A→B [4]: 9.3 ×10⁻⁶ cm/s
- IC50 (Cytochrome P450 1A2): > 20 µM
- AUC at 72 h [5]: 23 µM·h
- solubility kinetic [6]: < 1 µg/mL
- AUC [7]: 44.4 µM·h
- EC50 [8]: 8.4 µM
- fraction unbound [9]: 0.025
- solubility kinetic [10]: < 1 µg/mL
- IC50 (Cytochrome P450 2C19): > 20 µM
Structure (SMILES): CC(C)(O)CN1C(=O)[C@H](F)C[C@H]1C(=O)N1CC[C@@]2(S(=O)(=O)c3ccc(F)cc3)c3ccc(C(F)(C(F)(F)F)C(F)(F)F)cc3CC[C@@H]12
